Measurements reported in patent US20260317356A1, “SMALL MOLECULE MODULATORS OF OGG1” (AZKARRA THERAPEUTICS, INC., priority 2023, published 2026).

biological target: hOGG1 (Homo sapiens, UniProt O15527); assay: Biochemical fluorescence assay to measure enzymatic activity of hOGG1 (OGG1/APEX IC50); design: Protein His-hOGG1 (12-323) was prepared; His (N); host or cells: E. coli; conditions: 1 nM OGG1+2 nM APEX+6 nM dsDNA (8-oxo-dG substrate); pH 7.5; RT 40 min; read-out: OGG1/APEX IC50
How it was run: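 Coupled glycosylase/AP-endonuclease read-out: 8-oxo-dG-containing dsDNA (6 nM) cleaved by 1 nM His-hOGG1 (12-323) plus 2 nM APEX1 over 40 min at room temperature, after 20 min enzyme–compound preincubation; buffer 20 mM Tris pH 7.5, 100 mM KCl, 0.1% BSA, 0.01% Tween. IC50 comes from sigmoidal 3-parameter fitting of % inhibition derived from TAMRA signal.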

Sequence of hOGG1 (O15527 12-323): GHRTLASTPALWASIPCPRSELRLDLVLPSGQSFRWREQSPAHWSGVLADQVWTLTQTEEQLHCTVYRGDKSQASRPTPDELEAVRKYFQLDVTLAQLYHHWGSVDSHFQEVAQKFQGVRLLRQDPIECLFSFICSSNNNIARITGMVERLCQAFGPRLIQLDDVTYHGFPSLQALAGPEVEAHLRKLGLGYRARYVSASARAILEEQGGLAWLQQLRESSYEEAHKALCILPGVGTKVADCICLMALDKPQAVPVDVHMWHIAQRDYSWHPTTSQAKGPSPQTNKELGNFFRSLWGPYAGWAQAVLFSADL

IC50	Structure (SMILES)
100 to 1000 nM	COc1cc(NC(=O)[C@H]2CC[C@@H](N3Cc4c(C)ccc(N5CC(C)(C#N)C5)c4NC3=O)CC2)ccc1C [Example 34, (1s,4s)-4-(8-(3-Cyano-3-methylazetidin-1-yl)-5-methyl-2-oxo-1,2-dihydroquinazolin-3(4H)-yl)-N-(3-methoxy-4-methylphenyl)cyclohexanecarboxamide]
1000 to 10000 nM	COc1cc(NC(=O)[C@H]2CC[C@@H](N3Cc4c(OC)cccc4C3=O)CC2)ccc1C [Example 161, (1s,4s)-4-(4-Methoxy-1-oxoisoindolin-2-yl)-N-(3-methoxy-4-methylphenyl)cyclohexanecarboxamide]
< 100 nM	COc1cc(NC(=O)[C@H]2CC[C@@H](N3Cc4c(C)cc(C5=CCNCC5)cc4C3=O)CC2)ccc1C [Example 146, (1s,4s)-N-(3-Methoxy-4-methylphenyl)-4-(4-methyl-1-oxo-6-(1,2,3,6-tetrahydropyridin-4-yl)isoindolin-2-yl)cyclohexanecarboxamide]
< 100 nM	C=Cc1ccc(C)c2c1NC(=O)N([C@H]1CC[C@@H](C(=O)Nc3ccc(C)c(OC)c3)CC1)C2 [Example 55, (1s,4s)-N-(3-Methoxy-4-methylphenyl)-4-(5-methyl-2-oxo-8-vinyl-1,2-dihydroquinazolin-3(4H)-yl)cyclohexanecarboxamide]
1000 to 10000 nM	COc1cccc(NC(=O)[C@H]2CC[C@@H](N3Cc4c(C)cccc4C3=O)CC2)c1 [Example 245, (1s,4s)-N-(3-Methoxyphenyl)-4-(4-methyl-1-oxoisoindolin-2-yl)cyclohexanecarboxamide]
< 100 nM	COc1cc(NC(=O)[C@H]2CC[C@@H](N3Cc4c(C)ccc(CNS(C)(=O)=O)c4NC3=O)CC2)ccc1C [Example 24, (1s,4s)-N-(3-Methoxy-4-methylphenyl)-4-(5-methyl-8-(methylsulfonamidomethyl)-2-oxo-1,2-dihydroquinazolin-3(4H)-yl)cyclohexanecarboxamide]
100 to 1000 nM	COc1cc(NC(=O)[C@H]2CC[C@@H](N3Cc4c(ccc(C#N)c4C)NC3=O)CC2)ccc1C [Example 56, (1s,4s)-4-(6-Cyano-5-methyl-2-oxo-1,2-dihydroquinazolin-3(4H)-yl)-N-(3-methoxy-4-methylphenyl)cyclohexanecarboxamide]
> 10000 nM	COc1cc(NC(=O)C(C)N2CC(N3Cc4c(Br)cccc4C3=O)C2)ccc1C (centres unmarked) [Example 188, 2-(3-(4-Bromo-1-oxoisoindolin-2-yl)azetidin-1-yl)-N-(3-methoxy-4-methylphenyl)propanamide]
100 to 1000 nM	COc1cc(NC(=O)[C@H]2CC[C@@H](N3Cc4c(Br)cccc4C3=O)CC2)ccc1C [Example 150, (1s,4s)-4-(4-Bromo-1-oxoisoindolin-2-yl)-N-(3-methoxy-4-methylphenyl)cyclohexanecarboxamide]
< 100 nM	COc1ccc(NC(=O)[C@H]2CC[C@@H](N3Cc4c(C)cccc4NC3=O)CC2)cc1C [Example 87, (1s,4s)-N-(4-methoxy-3-methylphenyl)-4-(5-methyl-2-oxo-1,2-dihydroquinazolin-3(4H)-yl)cyclohexanecarboxamide]
1000 to 10000 nM	Cc1cccc2c1CN([C@H]1CC[C@@H](C(=O)Nc3ccc(O)cc3)CC1)C2=O [Example 229, (1s,4s)-N-(4-Hydroxyphenyl)-4-(4-methyl-1-oxoisoindolin-2-yl)cyclohexanecarboxamide]
100 to 1000 nM	COc1cc(NC(=O)[C@H]2CC[C@@H](N3Cc4c(C)cccc4C3=O)CC2)ccc1C [Example 153, (1s,4s)-N-(3-Methoxy-4-methylphenyl)-4-(4-methyl-1-oxoisoindolin-2-yl)cyclohexanecarboxamide]
1000 to 10000 nM	COc1cc(NC(=O)[C@H]2CC[C@@H](N3Cc4c(ccc(CN)c4C)NC3=O)CC2)ccc1C [Example 57, (1s,4s)-4-(6-(Aminomethyl)-5-methyl-2-oxo-1,2-dihydroquinazolin-3(4H)-yl)-N-(3-methoxy-4-methylphenyl)cyclohexanecarboxamide]
< 100 nM	COc1cc(NC(=O)[C@]2(C)CC[C@H](N3Cc4c(C)cccc4NC3=O)CC2)ccc1C (single isomer, unassigned) [Example 101, (1s,4s)-N-(3-methoxy-4-methylphenyl)-1-methyl-4-(5-methyl-2-oxo-1,2-dihydroquinazolin-3(4H)-yl)cyclohexanecarboxamide]
1000 to 10000 nM	Cc1ccc(NC(=O)[C@H]2CC[C@@H](N3Cc4c(C)cccc4C3=O)CC2)cc1C#N [Example 218, (1s,4s)-N-(3-Cyano-4-methylphenyl)-4-(4-methyl-1-oxoisoindolin-2-yl)cyclohexanecarboxamide]
1000 to 10000 nM	COCc1ccc2c(c1C)CN([C@H]1CC[C@@H](C(=O)Nc3ccc(C)c(OC)c3)CC1)C(=O)N2 [Example 48, (1s,4s)-N-(3-Methoxy-4-methylphenyl)-4-(6-(methoxymethyl)-5-methyl-2-oxo-1,2-dihydroquinazolin-3(4H)-yl)cyclohexanecarboxamide]

IC50	Structure (SMILES)
100 to 1000 nM	COc1cc(NC(=O)[C@H]2CC[C@@H](N3Cc4c(Br)cc([N+](=O)[O-])cc4C3=O)CC2)ccc1C [Example 163, (1s,4s)-4-(4-Bromo-6-nitro-1-oxoisoindolin-2-yl)-N-(3-methoxy-4-methylphenyl)cyclohexanecarboxamide]
100 to 1000 nM	CCc1ccc(NC(=O)[C@H]2CC[C@@H](N3Cc4c(C)cccc4C3=O)CC2)cc1OC [Example 123, (1s,4s)-N-(4-Ethyl-3-methoxyphenyl)-4-(4-methyl-1-oxoisoindolin-2-yl)cyclohexane-1-carboxamide]
< 100 nM	COc1cc(NC(=O)[C@H]2CC[C@@H](N3Cc4c(C)cc(C(=O)NCCN(C)C)cc4NC3=O)CC2)ccc1C [Example 84, N-(2-(dimethylamino)ethyl)-3-((1s,4s)-4-(3-methoxy-4-methylphenylcarbamoyl)cyclohexyl)-5-methyl-2-oxo-1,2,3,4-tetrahydroquinazoline-7-carboxamide]
< 100 nM	COc1cc(NC(=O)[C@H]2CC[C@@H](N3Cc4c(Br)cncc4NC3=O)CC2)ccc1C [Example 91, (1s,4s)-4-(5-bromo-2-oxo-1,2-dihydropyrido[3,4-d]pyrimidin-3(4H)-yl)-N-(3-methoxy-4-methylphenyl)cyclohexanecarboxamide]
100 to 1000 nM	COc1cc(NC(=O)[C@H]2[C@@H]3C[C@H](N4Cc5c(Br)cccc5C4=O)C[C@@H]32)ccc1C (single isomer, unassigned) [Example 268]
> 10000 nM	Cc1cccc2c1CN([C@H]1CC[C@@H](C(=O)Nc3ccc(=O)[nH]c3)CC1)C2=O [Example 251, (1s,4s)-4-(4-Methyl-1-oxoisoindolin-2-yl)-N-(6-oxo-1,6-dihydropyridin-3-yl)cyclohexanecarboxamide]
100 to 1000 nM	COc1cc(NC(=O)[C@H]2CC[C@@H](N3Cc4c(Br)cc(NC5COC5)cc4C3=O)CC2)ccc1C [Example 174, (1s,4s)-4-(4-Bromo-6-(oxetan-3-ylamino)-1-oxoisoindolin-2-yl)-N-(3-methoxy-4-methylphenyl)cyclohexanecarboxamide]
> 10000 nM	COc1cc(NC(=O)[C@H]2CC[C@@H](N3Cc4c(CN)cccc4C3=O)CC2)ccc1C [Example 134, (1s,4s)-4-(4-(aminomethyl)-1-oxoisoindolin-2-yl)-N-(3-methoxy-4-methylphenyl)cyclohexane-1-carboxamide]
1000 to 10000 nM	COc1cc(NC(=O)[C@H]2CC[C@@H](N3Cc4c(cccc4OC)NC3=O)CC2)ccc1C [Example 71, (1s,4s)-4-(5-methoxy-2-oxo-1,2-dihydroquinazolin-3(4H)-yl)-N-(3-methoxy-4-methylphenyl)cyclohexanecarboxamide]
> 10000 nM	Cc1cccc2c1CN([C@H]1CC[C@@H](C(=O)Nc3ccn(C)c(=O)c3)CC1)C2=O [Example 252, (1s,4s)-4-(4-Methyl-1-oxoisoindolin-2-yl)-N-(1-methyl-2-oxo-1,2-dihydropyridin-4-yl)cyclohexanecarboxamide]
100 to 1000 nM	CCc1ccc(NC(=O)[C@H]2CC[C@@H](N3Cc4c(C)cccc4C3=O)CC2)cc1C#N [Example 128, (1s,4s)-N-(3-Cyano-4-ethylphenyl)-4-(4-methyl-1-oxoisoindolin-2-yl)cyclohexane-1-carboxamide]
1000 to 10000 nM	Cc1ccc(NC(=O)[C@H]2CC[C@@H](N3Cc4c(C)cccc4C3=O)CC2)cc1O [Example 222, (1s,4s)-N-(3-Hydroxy-4-methylphenyl)-4-(4-methyl-1-oxoisoindolin-2-yl)cyclohexanecarboxamide]
100 to 1000 nM	COc1c(F)cc(NC(=O)[C@H]2CC[C@@H](N3Cc4c(C)cccc4C3=O)CC2)cc1F [Example 243, (1s,4s)-N-(3,5-Difluoro-4-methoxyphenyl)-4-(4-methyl-1-oxoisoindolin-2-yl)cyclohexanecarboxamide]
< 100 nM	CNCCNc1cc(Br)c2c(c1)C(=O)N([C@H]1CC[C@@H](C(=O)Nc3ccc(C)c(OC)c3)CC1)C2 [Example 175, (1s,4s)-4-(4-Bromo-6-(2-(methylamino)ethylamino)-1-oxoisoindolin-2-yl)-N-(3-methoxy-4-methylphenyl)cyclohexanecarboxamide]
< 100 nM	COc1cc(NC(=O)[C@H]2CC[C@@H](N3Cc4c(Br)cc(NC(=O)CCN(C)C)cc4C3=O)CC2)ccc1C [Example 204, (1s,4s)-4-(4-Bromo-6-(3-(dimethylamino)propanamido)-1-oxoisoindolin-2-yl)-N-(3-methoxy-4-methylphenyl)cyclohexanecarboxamide]
100 to 1000 nM	Cc1cccc2c1CN([C@H]1CC[C@@H](C(=O)Nc3ccc(Cl)cc3)CC1)C2=O [Example 216, (1s,4s)-N-(4-Chlorophenyl)-4-(4-methyl-1-oxoisoindolin-2-yl)cyclohexanecarboxamide]
